Holding throughout (assay): NCI-60 cell line screen, 48 h
Test [1] has as its system DU-145 prostate.
For test [2], the system named is IGROV1 ovarian.
In test [3] the test system is NCI-H23 lung.
The subject of test [4] is OVCAR-4 ovarian.
Test [5] relates to HL-60(TB) leukemia.
For test [6], the system named is MDA-MB-435.
Test [7] has as its system SK-MEL-2 melanoma.
Test [8] has as its system SF-268 CNS.
Test [9] has as its system SF-539 CNS.
For test [10], the system named is PC-3 prostate.

The structures appear in SMILES notation.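 Grown in 96-well plates, cells were treated for 48 hours with each compound at five concentrations. Insufficient inhibition: endpoint recorded as highest concentration tested. Abbreviation: GI50, concentration required for 50% inhibition of growth. TGI: total growth inhibition.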

Consider `Oc1cc2c(cc1C(c1ccc3c(c1)OCO3)N1CCN(C(c3ccc4c(c3)OCO4)c3cc4c(cc3O)OCO4)CC1)OCO2` (configuration not stated), for which the TGI in test [1] was 41.3 µM; in test [2], 35.7 µM; in test [3], 35.4 µM; in test [4], 16.5 µM; in [5], more than 100 µM; in test [6] it was 35 µM. Besides, the TGI in [7] was 41.6 µM; in [8] it was 59.3 µM; in [9], 33.9 µM; in test [10] it was more than 100 µM.

For `CNC1=CC(=O)C2=C(C1=O)C1C3=C(C(=O)C(Br)=C(OC)C3=O)C2c2ccccc21` (configuration not stated), the GI50 in test [1] is 5.9 µM; in test [2] it was 1.35 µM; in test [3], 4.44 µM; in [4] it was 2.3 µM; in test [6], 6.92 µM; in test [7], 3.03 µM. Further, the GI50 was 1.87 µM in test [8], 1.23 µM in test [9] and 1.08 µM in [10]. Further, the TGI in test [1] was 20.8 µM; in [2] it was 3.2 µM; in [3], 16 µM; in test [4] it was 15.6 µM; in test [6], 17.1 µM; in test [7], 14.1 µM. Also, the TGI in test [8] was determined as 10.3 µM; in test [9] it was 2.75 µM; in test [10] it was 2.75 µM.

On to `NC(=S)N/N=C/c1ccc(OC(=O)COc2ccccc2)cn1`, for which the GI50 is 2.72 µM in test [1]; 9.39 µM in test [2]; 4.49 µM in test [3]; 3.39 µM in [4]; 1.18 µM in test [5]; 10.9 µM in [6]. For the same molecule, the GI50 in [7] was more than 100 µM; in test [8], 2.95 µM; in test [9] it was 2.94 µM; in test [10] it was 5.34 µM. Moreover, the TGI in test [1] was 8.96 µM; in test [2], more than 100 µM; in test [3], more than 100 µM; in test [4], more than 100 µM; in test [5], more than 100 µM; in [6], more than 100 µM. The TGI was more than 100 µM in test [7], more than 100 µM in test [8], 10.9 µM in test [9] and more than 100 µM in [10].

As to `Cc1[nH]c(=O)nc(N/N=C/c2ccc(Cl)cc2)c1C(=O)Nc1ccc(Cl)cc1`, the TGI in test [1] is more than 100 µM; in test [2], more than 100 µM; in test [3], more than 93.1 µM; in [4], 22.4 µM; in test [5] it was more than 100 µM; in test [6], more than 100 µM. Besides, the TGI in test [7] is more than 100 µM; in test [8], more than 100 µM; in test [9], 67.6 µM; in test [10], more than 100 µM.

Consider `CC(=O)OC1CC2(O)C(CCC3(C)C(c4ccc(=O)oc4)CCC32O)C2(C)CCC(OC3OC(CO)C(O)C(O)C3O)C=C12` (configuration not stated), for which the GI50 in [1] is 0.0183 µM; in [2], 0.0318 µM; in test [3], 0.0114 µM; in test [4] it was 0.0273 µM; in test [5] it was 0.0232 µM; in test [6], 0.0342 µM. In addition, the GI50 in [7] was 0.0474 µM; in [8], 0.0112 µM; in test [9] it was 0.0144 µM; in test [10], 0.0248 µM. The TGI is 0.0594 µM in test [1]; 0.272 µM in test [2]; 0.0539 µM in test [3]; 0.153 µM in test [4]; 0.0579 µM in [5]; 0.139 µM in test [6]. The TGI in test [7] is 0.413 µM; in test [8], 0.04 µM; in test [9] it was 0.0331 µM; in test [10], 0.125 µM.

Regarding `C=C(CN(C)Cc1ccccc1)c1ccc(C(=O)Nc2ccccc2N)cc1`, the GI50 in [1] was 1.64 µM; in test [2] it was 0.606 µM; in [3] it was 0.397 µM; in [4], 8.28 µM; in test [6], 1.42 µM; in test [7] it was 8.73 µM. Also, the GI50 in [8] was 5.98 µM; in test [9] it was 2.02 µM; in test [10], 4.95 µM. The TGI in [1] was 11.9 µM; in test [2] it was 9.35 µM; in test [3], 7.93 µM; in test [4], more than 50 µM; in test [6] it was 5.7 µM; in test [7] it was 40.5 µM. Further, the TGI in [8] was 16.8 µM; in test [9], 12.1 µM; in test [10], more than 50 µM.

As for `CCCC(=O)O[C@]1(C)CC[C@@H]2[C@H]3[C@@H]1[C@@H]1C/C(C)=C\CC[C@](C)(OC(=O)[C@@H]2C)[C@H]3O1`, the GI50 in test [1] is 74.5 µM; in test [2] it was 24.3 µM; in [4] it was 52.9 µM; in test [6] it was 32.6 µM; in [7] it was 49.5 µM; in [8], 47.8 µM. For the same molecule, the values for the GI50 in test [9] and in test [10] were more than 100 µM and 16.2 µM, respectively. In addition, the TGI in [1], in test [2], in test [4], in [6], in test [7] and in test [8] was more than 100 µM in each case. Also, the TGI in [9] was more than 100 µM; in test [10] it was 41.3 µM.

As for `Cc1ccc(S(=O)(=O)N[C@@H](Cc2ccccc2)C(=O)CCl)cc1`, the GI50 in [1] is 11.1 µM; in test [2], 8.25 µM; in test [3] it was 20.5 µM; in test [4] it was 16.6 µM; in test [7], 15 µM; in test [9], 2.26 µM. For the same molecule, the GI50 in test [10] was 5.54 µM. Further, the TGI is 26.1 µM in [1]; 42 µM in test [2]; 51.4 µM in [3]; 42.6 µM in [4]; 30.7 µM in [6]; 35.8 µM in test [7]. In addition, the TGI in test [8] is 43.6 µM; in test [9], 5.68 µM; in test [10], 22.6 µM.

Turning to `Oc1c(Cl)cc(CN(Cc2cc(Cl)c(O)c(Cl)c2)C2CCCCC2)cc1Cl`, the TGI in test [1], in test [2], in test [3], in test [4], in test [6] and in [7] was more than 100 µM throughout. The TGI in [8], in test [9] and in test [10] was more than 100 µM in each case.
